Laboratory results taken from publication PMC8906008 (Antiviral Research, 2022).

What was measured:
[1] = biological target: SARS-CoV-2 nsp5 (nsp4-5-6 WT) (Severe acute respiratory syndrome coronavirus 2, UniProt P0DTD1); assay: cell-based
[2] = tested on: SARS-CoV-2 nsp4-5-6 C145A; format: cell-based

Row | Molecule | dose-response curve in Rev-Nluc assay [1] | Secondary screen nsp5-CA RLU (%) [2] [%]
1 | C1=C/COCc2cc(ccc2OCCN2CCCC2)Nc2nccc(n2)-c2cccc(c2)COC/1 [Compound #9, Pacritinib (SB1518)] | irregular pattern | 98.3 ± 4.0
2 | CCOC(=O)C1=C(C)NC(C)=C(C(=O)OCC)C1c1ccccc1/C=C/C(=O)OC(C)(C)C [compound 3, Lacidipine] |  | 121.2 ± 7.4
3 | CC[C@@H]1C(=O)N(C)c2cnc(Nc3ccc(C(=O)N[C@H]4CC[C@H](N5CCN(CC6CC6)CC5)CC4)cc3OC)nc2N1C(C)C [compound 4, Volasertib (BI6727)] |  | >250
4 | COc1cc(NC(=O)Nc2cccc(CNC(=O)O[C@H]3CCOC3)c2)ccc1-c1cnco1 [compound 5, Merimepodib] |  | 110.4 ± 10.8
5 | Cc1cnc(Nc2ccc(OCCN3CCCC3)cc2)nc1Nc1cccc(S(=O)(=O)NC(C)(C)C)c1 [compound 6, Fedratinib (SAR302503)] |  | >250
6 | Cc1sc2c(c1C)C(c1ccc(Cl)cc1)=N[C@@H](CC(=O)Nc1ccc(O)cc1)c1nnc(C)n1-2 [compound 7, OTX015] |  | >250
7 | Cc1cnc(Nc2ccc(N3CCN(C)CC3)cc2)nc1Nc1cccc(S(=O)(=O)NC(C)(C)C)c1 [compound 8, TG101209] |  | >250
8 | O=C(Nc1c[nH]nc1-c1nc2ccc(CN3CCOCC3)cc2[nH]1)NC1CC1 [compound 10, AT9283] |  | 71.3 ± 8.3
9 | COCCOc1ccc2c(c1)ncn2-c1ccc2cccc(N3CCC(N)CC3)c2n1 [compound 12, CP 673451] |  | 144.6 ± 10.3
10 | CNCc1ccc(C)c(NC(=O)c2ccc(Nc3nc(-c4ccccc4)c4ccccc4n3)cc2)c1 [compound 16, BMS-833923 (XL139)] |  | 256.0 ± 74.0
11 | CC(C)(C)c1cnc(CSc2cnc(NC(=O)C3CCNCC3)s2)o1 [compound 17, SNS-032 (BMS-387032)] |  | 66.6 ± 3.4
12 | C=CC(=O)Nc1cccc(Nc2nc(Nc3ccc(N4CCN(C(C)=O)CC4)cc3OC)ncc2C(F)(F)F)c1 [compound 20, Rociletinib (CO-1686. AVL-301)] |  | 181.9 ± 10.4
13 | Cc1nc(Nc2ncc(C(=O)Nc3c(C)cccc3Cl)s2)cc(N2CCN(CCO)CC2)n1 [compound 21, Dasatinib (BMS-354825)] |  | 249.1 ± 19.9
14 | C=CC(=O)Nc1cc(Nc2nccc(-c3cn(C)c4ccccc34)n2)c(OC)cc1N(C)CCN(C)C [compound 23, Osimertinib (AZD9291)] |  | 43.2 ± 6.7
15 | O=C(NC(Cc1cc(=O)[nH]c2ccccc12)C(=O)O)c1ccc(Cl)cc1 (stereo not drawn) [compound 43, Rebamipide] |  | 71.6 ± 6.5
16 | CC(C)(C(=O)c1cccnc1)c1cccnc1 [compound 44, Metyrapone] |  | 77.7 ± 2.4
17 | UNC2881 [compound 1] |  | 295.3 ± 15.8
